Assay results published in US5750146A, “Translucent collagen formulations with a cytotoxic drug” (Matrix Pharmaceutical, Inc., priority 1995, dated 1998).

What was measured:
Format in all cases: physicochemical
[1] = optical absorbance at 410 nm (optical opacity) of aqueous collagen compositions, 1 mm pathlength; conditions: 0.25M additive, 6.5 weight percent collagen, pH 9.1, 2° to 8° C., 10 minutes
Description: Aliquots (0.5 mL) of each of the compositions were placed in microcuvet having a 1 mm pathlength at different temperatures for 10 minutes wherein the first aliquot was stored at about 12° C, the second aliquot was stored at about 8° C. and the third aliquot was stored at about 4° C. The optical opacity of each sample was then measured at 30 second intervals by determining the absorbance of light (410 nm) through the microcuvet. Lower absorbance in each case corresponds to greater optical clarity at 410 nm.
Three identical aqueous collagen compositions were prepared as above with the exception that the amount of fluorouracil incorporated into the compositions were varied to be 16.65 mg/mL, 22.2 mg/mL and 33.3 mg/mL respectively. The resulting compositions were stored at 4° C. as aliquots (0.5 mL) in microcuvets having a 1 mm pathlength for 10 minutes and the optical opacity of each sample was measured at 30 second intervals by determining the absorbance of light (410 nm) through the microcuvet. Lower absorbance in each case corresponds to greater optical clarity at 410 nm.
Both compositions were then stored at from about 2° to 8° C. as aliquots (0.5 mL) in microcuvets having a 1 mm pathlength for 10 minutes and the optical opacity of each sample was measured at 15 second intervals by determining the absorbance of light (410 nm) through the microcuvet. […]

[2] = optical appearance of aqueous collagen compositions on storage
Description: Mixing was conducted by repeated transfers between two syringes connected by a mixing adapter. […] The results of these scans are illustrated in FIG. 5 and 6, respectively.
A second study was conducted to determine the amount of fluorouracil required to effect clarification on an opaque aqueous collagen composition. Specifically, aqueous collagen compositions were formulated to contain collagen (21.7 mg/mL), 0.033M phosphate buffer and varying amounts of fluorouracil. Each composition was then stored at about 2° C. to 8° C. for 17 days and the optical appearance of the composition measured periodically.
Specifically, in this example, the concentration of methotrexate in the collagen composition was varied and the collagen compositions were stored for 1 day and 3 days at either at 2° C. to 8° C. or at room temperature. The results at 3 days were the same as those found after 1 day and, accordingly, Table III below sets forth only the results from day 1.
A second study was conducted by preparing collagen compositions having 0.033M potassium phosphate buffer and […]. The pH of the solution was adjusted by the addition of HCl or NaOH as necessary to modify the pHs of the compositions to approximately 5, 7, 8 and 9. The compositions were stored at either room temperature or at 2-8° C. The optical appearance of these compositions was evaluated at 1 and 11 days after storage.

collagen = experiment: Differential Scanning Calorimetry (DSC) scan of collagen transition temperature; conditions: for compatibility of cytotoxic drug with collagen: judged from collagen transition temperature
Description: The phase change is typically a change in the fibril size of the collagen in the composition and can be readily determined by a peak in conventional Differential Scanning Calorimetry (DSC) scans of the aqueous collagen composition. For the purposes of this application, transition temperatures measured by DSC are determined under the following conditions: heating at 10°C. per minute at 25 psi nitrogen (N2) using a DSC 10 instrument available from TA Industries, New Castle, Del., USA.
An aqueous collagen composition was prepared by combining requisite amounts of components under aseptic conditions to provide for an aqueous collagen composition comprising 6.5 weight percent collagen, 0.1M sodium phosphates and 0.045M sodium chloride. A DSC scan of the resulting composition was conducted by adding an aliquot of the composition to the sample holder (DSC pan), hermetically sealing the sample holder, and then placing the holder into a Differential Scanning Calorimeter (Model No. DSC 10 available from TA Instruments, New Castle, Del., USA). The calorimeter measures the transition temperature correlating to a phase change in the collagen composition by recording the temperature where excess heat over baseline is either absorbed or released by the composition.
The DSC scan of this composition was then conducted at from 30° to 70° C. at the rate of 10° C. per minute and the results are illustrated in FIG. 1.
Two additional aqueous compositions were prepared as above with the exception that fluorouracil was incorporated into each of these compositions and the resulting composition comprised collagen (2.2 weight percent), fluorouracil (33.3 mg/mL), 0.033M sodium phosphates and 0.015 M sodium chloride. The compositions were formulated by mixing under aseptic conditions, until homogeneous, 1 volume of an aqueous collagen composition comprising 6.5 weight percent collagen, 0.1M sodium phosphate and 0.045M sodium chloride with 2 volumes of a fluorouracil solution (50 mg/mL) at ambient conditions by recirculation through a static mixer and with magnetic stirring. […]

O=c1[nH]cc(F)c(=O)[nH]1 [fluorouracil, 5-fluoro-2,4-(1H, 3H)pyrimidinedione]
effect of additive on clarifying the collagen composition (FIG. 11) [1]: only fluorouracil has any significant effect on clarifying the collagen composition | clarifying effect on opaque collagen composition ([2]; fluorouracil at 20 mg/mL, 2° C. to 8° C.): some clarifying affect on the opaque collagen composition | compatibility of cytotoxic drug with collagen (collagen): compatible cytotoxic drug

CN(Cc1cnc2nc(N)nc(N)c2n1)c1ccc(C(=O)N[C@@H](CCC(=O)O)C(=O)O)cc1 [methotrexate]
effect of refrigeration and high concentration on optical clarity ([2]; refrigeration, high concentrations of methotrexate): both refrigeration and high concentrations of methotrexate are effective in effecting optical clarity | compatibility of cytotoxic drug with collagen (collagen): compatible cytotoxic drug

N.N.[Cl][Pt][Cl] [cisplatin, cis-diamino dichlororplatinum (II)]
cross-linking to collagen (increase in transition temperature over time) (collagen; room temperature, up to 8 hours): cross-linking (i.e., covalent bonding) of the cisplatin to the collagen
